Patent US9512111B2, “N-sulfonylated tetrahydroquinolines and related bicyclic compounds for inhibition of RORγ activity and the treatment of disease” (Lycera Corporation, priority 2010, dated 2016)

Biological target: T1, RORγ-LBD (Homo sapiens, UniProt P51449)
T1 construct: HIS-tagged RORγ-LBD was recombinantly expressed in SF9 cells; made in house; host or cells: SF9 cells (baculovirus); unpurified lysate
T1 sequence (P51449 269-508 limits assumed): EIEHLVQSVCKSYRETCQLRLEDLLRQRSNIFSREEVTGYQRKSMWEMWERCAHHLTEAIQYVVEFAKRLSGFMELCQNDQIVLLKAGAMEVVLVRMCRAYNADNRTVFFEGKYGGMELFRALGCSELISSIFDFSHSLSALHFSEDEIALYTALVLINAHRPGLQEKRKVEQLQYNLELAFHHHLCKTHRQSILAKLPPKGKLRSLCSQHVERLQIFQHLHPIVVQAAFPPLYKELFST
Assay: RORγ-Ligand Binding Domain TR-FRET Assay
Assay type: biochemical
Method: HIS-tagged RORγ-LBD was recombinantly expressed in SF9 cells using a baculovirus expression system. The protein was not purified. Cells were lysed and the lysate was used as a source for RORγ-LBD for the assay. A 1:80 dilution of RORγ-LBD lysate in assay buffer (25 mM HEPES pH 7.0, 100 mM NaCl, 0.01% Tween, 0.1% BSA) was prepared and 5 μL was added to each well (RORγ-LBD final concentration ˜10 nM). Control wells received lysate from SF9 cells not expressing RORγ-LBD.
Compounds to be tested were diluted to 100× final test concentration in DMSO and further diluted to 4× final test concentration using assay buffer to provide the test compound mixture. An aliquot (5 μL) of the test compound mixture was added to each well.
A 4× stock of biotinylated-LXXLL peptide from SRC1-2 (Biotin-[…]) was prepared in assay buffer and a 5 μL aliquot added to each well (450 nM final concentration). A 4× solution of europium tagged anti-HIS antibody (2 nM final concentration) and APC conjugated streptavidin (60 nM final concentration) were prepared and a 5 μL aliquot added to each well.
The final assay mixture was incubated for 4 hours to overnight, and the fluorescence signal was measured on an Envision plate reader: (Excitation filter=340 nm; APC emission=665 nm; Europium emission=615 nm; dichroic mirror=D400/D630; delay time=100 μs, integration time=200 μs).
IC50 values for test compounds were calculated from the quotient of the fluorescence signal at 665 nm divided by the fluorescence signal at 615 nm using GraphPad Prism software.

IC50 (Table 8, indazoles) [µM] | IC50 (benzoxazines, Table 9) [µM] | SMILES
< 15 | – | Cc1nn(C)c(C)c1S(=O)(=O)n1ncc2ccc(NC(=O)c3c(F)cccc3Cl)cc21 [Compound V-90]
< 15 | – | O=C(Nc1ccc2cnn(S(=O)(=O)c3ccc(Cl)c(Cl)c3)c2c1)c1c(F)cccc1Cl [Compound V-154]
< 15 | – | O=C(Nc1ccc2cnn(S(=O)(=O)Cc3ccc(Cl)c(Cl)c3)c2c1)c1c(F)cccc1Cl [Compound V-139]
< 15 | – | O=C(Nc1ccc2c(C(O)CO)nn(S(=O)(=O)c3cccc(C(F)(F)F)c3)c2c1)c1c(F)cccc1Cl (stereo not drawn) [Compound 10, 2-Chloro-N-[3-(1,2-dihydroxyethyl)-1-(3-trifluoromethylbenzenesulfonyl)-1H-indazol-6-yl]-6-fluorobenzamide]
< 15 | – | O=C(Nc1ccc2cnn(S(=O)(=O)c3cccc(C(F)(F)F)c3)c2c1)c1c(F)cccc1F [Compound V-64]
< 15 | – | O=C(Nc1ccc2cnn(S(=O)(=O)Cc3ccc(C(F)(F)F)cc3)c2c1)c1c(Cl)cccc1Cl [Compound V-71]
< 15 | – | COC(=O)c1sccc1S(=O)(=O)n1ncc2ccc(NC(=O)c3c(F)cccc3Cl)cc21 [Compound V-144]
< 15 | – | O=C(Nc1ccc2cnn(S(=O)(=O)c3cccc(OC(F)(F)F)c3)c2c1)c1c(F)cccc1F [Compound V-63]
< 15 | – | CC(=O)c1cccc(S(=O)(=O)n2ncc3ccc(NC(=O)c4c(F)cccc4C(F)(F)F)cc32)c1 [Compound V-12]
< 15 | – | O=C(Nc1ccc2cnn(S(=O)(=O)c3ccc(F)c(F)c3)c2c1)c1c(F)cccc1Cl [Compound V-170]
< 15 | – | Cc1cccc(S(=O)(=O)n2nc(Br)c3ccc(NC(=O)c4c(F)cccc4Cl)cc32)c1 [Compound V-52]
– | < 15 | C[C@H]1CN(S(=O)(=O)c2cccc(C#N)c2)c2cc(NC(=O)c3c(Cl)cccc3C(F)(F)F)ccc2O1 [VI-5]
< 15 | – | COc1cccc(S(=O)(=O)n2ncc3ccc(NC(=O)c4c(Cl)cccc4C(F)(F)F)cc32)c1 [Compound V-40]
– | < 15 | C[C@H]1CN(S(=O)(=O)c2ccc(F)cc2)c2cc(NC(=O)c3c(F)cccc3C(F)(F)F)ccc2O1 [VI-19]
< 15 | – | N#Cc1nn(S(=O)(=O)c2cccc(C(F)(F)F)c2)c2cc(NC(=O)c3c(F)cccc3Cl)ccc12 [Compound V-9]
< 15 | – | COc1cccc(S(=O)(=O)n2ncc3ccc(NC(=O)c4c(F)cccc4Cl)cc32)c1 [Compound V-148]
– | < 15 | CNCC1CN(S(=O)(=O)c2ccc(F)cc2)c2cc(NC(=O)c3c(F)cccc3Cl)ccc2O1 (stereo not drawn) [Compound 14]
< 15 | – | Cc1ccccc1S(=O)(=O)n1ncc2ccc(NC(=O)c3c(F)cccc3Cl)cc21 [Compound V-129]
– | < 15 | C[C@H]1CN(S(=O)(=O)c2cccc(C#N)c2)c2cc(NC(=O)c3c(F)cccc3C(F)(F)F)ccc2O1 [VI-4]
– | < 15 | O=C(Nc1ccc2c(c1)N(S(=O)(=O)c1ccc(F)cc1)CC(C(F)(F)F)O2)c1c(F)cccc1F (stereo not drawn) [VI-111]

IC50 (Table 8, indazoles) [µM] | IC50 (benzoxazines, Table 9) [µM] | SMILES
< 15 | – | CC(C)c1ccc(S(=O)(=O)n2ncc3ccc(NC(=O)c4c(F)cccc4Cl)cc32)cc1 [Compound V-120]
– | < 15 | O=C(Nc1ccc2c(c1)N(S(=O)(=O)c1ccc(F)cc1)C(CO)CO2)c1c(F)cccc1Cl (stereo not drawn) [Compound 23, 2-Chloro-6-fluoro-N-[4-(4-fluorobenzenesulfonyl)-3-hydroxymethyl-3,4-dihydro-2H-benzo[1,5]oxazin-6-yl]benzamide]
< 15 | – | O=C(Nc1ccc2cnn(S(=O)(=O)c3cccnc3)c2c1)c1c(F)cccc1Cl [Compound V-94]
< 15 | – | Cc1ccc(F)cc1S(=O)(=O)n1ncc2ccc(NC(=O)c3c(F)cccc3Cl)cc21 [Compound V-165]
< 15 | – | CC(=O)c1cccc(S(=O)(=O)n2ncc3ccc(NC(=O)c4c(Cl)cccc4C(F)(F)F)cc32)c1 [Compound V-36]
< 15 | – | O=C(Nc1ccc2cnn(S(=O)(=O)Cc3cc(C(F)(F)F)cc(C(F)(F)F)c3)c2c1)c1c(F)cccc1Cl [Compound V-93]
< 15 | – | Cc1cccc(S(=O)(=O)n2ncc3ccc(NC(=O)c4c(Cl)cccc4Cl)cc32)c1 [Compound V-70]
< 15 | – | O=C(Nc1ccc2cnn(S(=O)(=O)c3ccc(F)c(Cl)c3)c2c1)c1c(F)cccc1Cl [Compound V-76]
< 15 | – | O=C(Nc1ccc2cnn(S(=O)(=O)c3ccc(F)cc3Cl)c2c1)c1c(F)cccc1Cl [Compound V-166]
< 15 | – | O=C(Nc1ccc2cnn(S(=O)(=O)c3cc(Cl)cc(Cl)c3)c2c1)c1c(F)cccc1Cl [Compound V-126]
– | < 15 | C[C@H](C(=O)Nc1ccc2c(c1)N(S(=O)(=O)c1ccc(F)cc1)C[C@H](C)O2)c1ccccc1 [VI-133]
< 15 | – | O=C(Nc1ccc2cnn(S(=O)(=O)Cc3ccc(C(F)(F)F)cc3)c2c1)c1c(F)cccc1C(F)(F)F [Compound V-47]
< 15 | – | O=C(Nc1ccc2cnn(S(=O)(=O)Cc3cccc(C(F)(F)F)c3)c2c1)c1c(F)cccc1Cl [Compound V-137]
< 15 | – | CC(C)(C)c1cccc(S(=O)(=O)n2ncc3ccc(NC(=O)c4c(F)cccc4Cl)cc32)c1 [Compound V-106]
< 15 | – | O=C(Nc1ccc2cnn(S(=O)(=O)c3ccc(Cl)cc3)c2c1)c1c(F)cccc1Cl [Compound V-156]
– | < 15 | C[C@H]1CN(S(=O)(=O)c2cccc(C#N)c2)c2cc(NC(=O)c3c(F)cccc3Cl)ccc2O1 [VI-6]
< 15 | – | O=C(Nc1ccc2cnn(S(=O)(=O)c3cccc(C(F)(F)F)c3)c2c1)c1c(F)cccc1C(F)(F)F [Compound V-51]
– | < 15 | C[C@H]1CN(S(=O)(=O)c2cccc(C#N)c2)c2cc(NC(=O)c3c(F)cccc3F)ccc2O1 [VI-2]
< 15 | – | O=C(Nc1ccc2cnn(S(=O)(=O)Cc3cccc(Cl)c3)c2c1)c1c(F)cccc1Cl [Compound V-86]
< 15 | – | O=C(Cc1ccc(F)c(F)c1)Nc1ccc2cnn(S(=O)(=O)c3cccc(OC(F)F)c3)c2c1 [Compound V-18]

IC50 (Table 8, indazoles) [µM] | IC50 (benzoxazines, Table 9) [µM] | SMILES
– | < 15 | C[C@H]1CN(S(=O)(=O)c2cccc(C#N)c2)c2cc(NC(=O)c3c(Cl)cccc3Cl)ccc2O1 [VI-3]
< 15 | – | O=C(Nc1ccc2c(CO)nn(S(=O)(=O)c3cccc(C(F)(F)F)c3)c2c1)c1c(F)cccc1Cl [Compound 11, 2-Chloro-6-fluoro-N-[3-hydroxymethyl-1-(3-trifluoromethylbenzene-sulfonyl)-1H-indazol-6-yl]benzamide]
< 15 | – | COC(=O)c1ccc(S(=O)(=O)n2ncc3ccc(NC(=O)c4c(F)cccc4Cl)cc32)cc1 [Compound V-109]
< 15 | – | Cc1ccc(S(=O)(=O)n2ncc3ccc(NC(=O)c4c(F)cccc4Cl)cc32)cc1 [Compound V-158]
< 15 | – | Cc1ccc(S(=O)(=O)n2ncc3ccc(NC(=O)c4c(F)cccc4Cl)cc32)cc1F [Compound V-125]
< 15 | – | COc1ccc(Br)cc1S(=O)(=O)n1ncc2ccc(NC(=O)c3c(F)cccc3Cl)cc21 [Compound V-83]
< 15 | – | O=C(Nc1ccc2cnn(S(=O)(=O)c3c(F)cccc3F)c2c1)c1c(F)cccc1Cl [Compound V-128]
< 15 | – | Cc1cc(F)ccc1S(=O)(=O)n1ncc2ccc(NC(=O)c3c(F)cccc3Cl)cc21 [Compound V-163]
< 15 | – | CNC(=O)Nc1ccc(S(=O)(=O)n2ncc3ccc(NC(=O)c4c(F)cccc4Cl)cc32)cc1 [Compound V-135]
– | < 15 | N#Cc1cccc(S(=O)(=O)N2C[C@H](CO)Oc3ccc(NC(=O)Cc4ccc(F)cc4)cc32)c1 [VI-64]
< 15 | – | Cc1c(Cl)cccc1S(=O)(=O)n1ncc2ccc(NC(=O)c3c(F)cccc3Cl)cc21 [Compound V-145]
– | < 15 | C[C@H]1CN(S(=O)(=O)c2ccc(F)cc2)c2cc(NC(=O)C(C)(C)c3ccc(Cl)cc3)ccc2O1 [VI-135]
– | < 15 | O=C(Cc1ccc(F)cc1)Nc1ccc2c(c1)N(S(=O)(=O)c1ccc(F)c(F)c1)C[C@@H](CO)O2 [VI-74]
< 15 | – | COc1cccc(S(=O)(=O)n2ncc3ccc(NC(=O)c4c(F)cccc4C(F)(F)F)cc32)c1 [Compound V-49]
< 15 | – | N#Cc1ccc(S(=O)(=O)n2ncc3ccc(NC(=O)c4c(F)cccc4Cl)cc32)c(Cl)c1 [Compound V-146]
< 15 | – | O=C(Nc1ccc2cnn(S(=O)(=O)c3cccc(OC(F)(F)F)c3)c2c1)c1c(Cl)cccc1Cl [Compound V-74]
< 15 | – | COC(=O)c1ccccc1S(=O)(=O)n1ncc2ccc(NC(=O)c3c(F)cccc3Cl)cc21 [Compound V-142]
– | < 15 | C[C@H]1CN(S(=O)(=O)c2ccc(F)cc2)c2cc(NC(=O)[C@H](C)c3ccccc3)ccc2O1 [VI-134]
– | < 15 | O=C(Nc1ccc2c(c1)N(S(=O)(=O)c1ccc(F)cc1)CC(CC(F)(F)F)O2)c1c(F)cccc1Cl (stereo not drawn) [VI-7]
< 15 | – | Cc1cccc(S(=O)(=O)n2ncc3ccc(NC(=O)c4c(F)cccc4Cl)cc32)c1 [Compound V-124]
